The source of these data is US12605382B2, “Pharmaceutical composition for preventing, alleviating, or treating cancer containing 2,6-dichloro-4-(4-(4-hydroxycyclohexylamino)-7H- pyrrolo[2,3-d]pyrimidin-5-yl)phenol as active ingredient” (JBKLAB CO., LTD., priority 2021, dated 2026).

SMILES strings stand for the structures.

For one assay, the system named is CD8+ T cells. Briefly: Immunocytochemistry (IHC) analysis of tumor tissue, 4T1 allograft model. The format is in vivo, BALB/c mice. The text has this: (§1) In order to evaluate changes in the expression of proteins such as BRD4 and HIF-1α, the tumor cells isolated in Example 10 were subjected to immunocytochemistry (IHC) analysis to evaluate the changes in protein expression in the tumor microenvironment according to the treatment method.
(§2) Specifically, tumor tissue was extracted, fixed in 4% paraformaldehyde, and embedded in paraffin to create blocks. The paraffin block containing the tissue was sliced transversely to a thickness of 4 μm and attached to a slide. Paraffin was removed from the tissue attached to the slide using xylene and ethanol, and endogenous peroxidase was removed from the tissue by immersing the slide in a solution of 3% H2O2 in methanol for 10 minutes at room temperature. Then, for antigen retrieval, the slide was placed in 0.01 M sodium citrate buffer (pH 6.0) and boiled. In order to eliminate non-specific binding, FcR on the cell surface was blocked using 5% normal goat serum. Then, the slide was incubated overnight at 4° C. with primary antibodies (HIF-1a (SantaCruz, sc-13515), PD-L1 (Abcam, ab2025921), CD8 (Abcam, ab203035), and CD68 (CellSignaling, 97778)). Secondary antibodies were attached and color development was induced using ImmPRESSGoat Anti-Rat IgG (Mouse Adsorbed) Polymer kit (Vector Laboratories), Abcam (ab150165, ab150081), and REAL En Visiondetection system (Dako). The stained tissue was observed under an Axioskop40 optical microscope (Carl Zeiss) at 40× magnification, and the images were saved using AxioVision4.7 software. The expression level was measured through the area of the stained region in the photograph using Image J software (NIH, Bethesda). Average density values were calculated from at least three slides per sample.

Assay [1] concerns Brd4. Described as above. Format: in vivo, BALB/c mice.
Excerpt: as §1, §2

The next assay has as its system CD68+ macrophages. The description is as above. The format is in vivo, BALB/c mice.
Excerpt: as §1, §2

In assay [2] the test system is PD-L1. The description is as above. The format is in vivo, BALB/c mice.
Excerpt: as §1, §2

Another assay deals with HIF-1α. Described as above. The format is in vivo, BALB/c mice.
Excerpt: as §1, §2

Another assay has as its system BT20. The assay is described as follows: Cell viability assay (WST-8), breast cancer cell line. The format is cell-based, human. The note with it: dose dependently. Here is the method: An experiment was performed to confirm the growth inhibitory effect of the compound of Example 1, the active ingredient of the pharmaceutical composition of the present invention, on breast cancer cell lines through cell viability assay.
Specifically, the cell viability assay was performed as follows. BT20, a human-derived breast cancer cell line, and MDA-MB-231, a TNBC cell line, were each seeded in 96-well plates at the density of 5×10^3 cells/well and cultured for 24 hours. Then, I-bet 762 and the compound of Example 1 were treated thereto at different concentrations and cultured for 48 hours. At the end of the culture, 100 μl of WST-8 solution was added to each well of the plate, and the absorbance was measured with a microplate reader using a 450 nm optical filter to measure the formazan produced by the reducing factors in living cells.
FIGS. 4A-4C show the cell viability of MDA-MB-231, MDA-MB-453, and BT-20 after 24 hours of treatment with the compound of Example 1. As shown in FIGS. 4A-4C, it was confirmed that the cell viability was suppressed not only in general breast cancer cell lines, but also in TNBC cell lines dose dependently.
On the technique in general: Formazan colour is commonly taken as a measure of viable cells.

A further assay deals with c-myc. The assay is described as follows: Western blotting of tumor tissue from MDA-MB-231 tumor-bearing mice. The format is in vivo, BALB/c-nude mice. The note with it: 5, 10 and 20 mg/kg (T4, T5, T6), once by intravenous injection. Here is the method:
(§3) An experiment was performed to confirm the inhibitory effect of the compound of Example 1, the active ingredient of the pharmaceutical composition of the present invention, on the expression of major proteins on cancer cell growth through Western blotting.
(§4) Specifically, MDA-MB-231 cells, a TNBC cell line, were cultured in a 37° C., 5% CO2 incubator, and the medium used for cell culture was RPMI-1640 supplemented with 10% FBS. Tumors were induced by subcutaneously injecting 5×10^6/head/100 μl of MDA-MB-231 cells into the right neck of BALB/c-nude mice (5 mice each in control and administration groups), and the experiment was performed when the tumor size reached 200 mm^3. The compound of Example 1, the active ingredient of the pharmaceutical composition of the present invention, was administered once by intravenous injection at concentrations of 5, 10, and 20 mg/kg (T4, T5, and T6) and then euthanized using CO2, and the resulting tumor tissues from the control and administration groups were taken and subjected to Western blotting. Proteins were isolated from the tumor tissues and the results of Western blotting were confirmed using BRD4, c-myc, PD-L1, and Actin antibodies, respectively.

In assay [3] the test system is PD-L1. Described as above. Format: in vivo, BALB/c-nude mice. To be noted: 5, 10 and 20 mg/kg (T4, T5, T6), once by intravenous injection. As to the method:
as §3, §4

Assay [4] concerns BRD4. The description is as above. The format is in vivo, BALB/c-nude mice. To be noted: 5, 10 and 20 mg/kg (T4, T5, T6), once by intravenous injection. As to the method:
as §3, §4

A further assay relates to SKOV-3. Briefly: Cell viability alone and in combination with cisplatin. The format is cell-based, Human. As to the method:
(§5) Human ovarian cancer cell lines (SKOV-3 and OVCAR-3) were treated with control (no treatment), 0.1 μM of the compound of Example 1, 1 μM of cisplatin, and 0.1 μM of the compound of Example 1/1 μM of cisplatin, and the cell viability of SKOV-3 and OVCAR-3 was confirmed.

Another assay has as its system OVCAR-3. The assay is described as above. The format is cell-based, Human. Here is the method: as §5
The next assay deals with Hep3B. Briefly: Clonogenic assay. The format is cell-based. The note with it: 2.5 and 5 μM, 10 days. Here is the method: (§6) HepG2 and Hep3B were each seeded in 12-well plates at the density of 3×10^3 cells/well and cultured for 24 hours. Then, Sorafenib and the compound of Example 1 were treated thereto at 2.5 and 5 μM each and cultured for 10 days. Upon completion of the culture, the cells were washed with PBS, fixed with 37% formaldehyde, and stained with 0.01% crystal violet. After staining, the cells were washed with distilled water and the colonies of stained cells were photographed.

The next assay relates to HepG2. The assay is described as follows: Clonogenic assay. Format: cell-based. The note with it: 2.5 and 5 μM, 10 days. Here is the method: as §6
The mark [5] stands for this setting: 0.1 μM Example 1 combined with 1 μM cisplatin.

Turning to `Oc1c(Cl)cc(-c2c[nH]c3ncnc(N[C@H]4CC[C@H](O)CC4)c23)cc1Cl` [Example 1, (trans)-2,6-dichloro-4-(4-(4-hydroxycyclohexylamino)-7H-pyrrolo[2,3-d]pyrimidin-5-yl)phenol], the “population of CD8+ T cells” value with CD8+ T cells (alone) is listed as “increased”; in the assay with CD8+ T cells (combined with radiation), “further increased (synergistic effect)”. In the assay on Brd4 [1], the “Brd4 expression in tumor tissue” value is reported as “significantly (P<0.001) reduced”. Besides, the “population of CD68+ macrophages in tumor tissue” value with CD68+ macrophages is on record as “significantly (P<0.01) reduced”. Also, the “expression of PD-L1” value in the assay on PD-L1 [2] was “significantly (P<0.01) decreased”. Besides, the “HIF-1α expression in tumor tissue” value in the assay with HIF-1α is reported as “significantly (P<0.05) reduced”. Further, the cell viability entry in the assay with BT20 (BT20, 48 hours) is recorded as “inhibited the cell viability”; in the assay with BT20 (BT-20, 24 hours) it was “suppressed”; in the assay on SKOV-3 (setting [5]), “further inhibited (synergistic effect)”; with SKOV-3 (0.1 μM alone), “suppressed”; in the assay on OVCAR-3 (setting [5]), “further inhibited (synergistic effect)”; with OVCAR-3 (0.1 μM alone), “suppressed”. In addition, in the assay with c-myc, the “expression of c-myc in tumor tissue vs untreated negative control (NC)” value is “reduced”. Besides, in the assay with PD-L1 [3], the “expression of PD-L1 in tumor tissue vs untreated negative control (NC)” value is on record as “reduced”. For the same compound, the “expression of BRD4 in tumor tissue vs untreated negative control (NC)” value in the assay on BRD4 [4] is “reduced”. The “number of colonies, treated vs not treated” value in the assay on Hep3B and in the assay with HepG2 was “clear difference in the number of colonies” throughout.
